Test systems include MDA-MB-231 breast; SNB-75 CNS; UACC-62 melanoma; HT29 colon; SF-539 CNS; OVCAR-8 ovarian; SR leukemia; ACHN renal; M14 melanoma; NCI-H522 lung; SK-OV-3 ovarian; OVCAR-5 ovarian; HCT-15 colon; K-562 leukemia; SF-268 CNS; BT-549 breast.
What all share (assay): growth of human tumour cells (NCI), 48 h

Structures are written as SMILES. “And” between values parts separate entries of the source, which are not always exact repeats. Equal values may be shown once.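 Following 48 hours of exposure in 96-well plates, responses at five concentrations were used to interpolate endpoints linearly. GI50 marks 50% less growth. Definition used: TGI = concentration required for complete inhibition of growth.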

On to `O=[N+]([O-])c1cccc2nc3ccccc3c(NCCCn3ccnc3[N+](=O)[O-])c12`, for which the TGI in the test on MDA-MB-231 breast is 0.0119 µM; in the test on SNB-75 CNS, 0.0775 µM; with UACC-62 melanoma, 0.0187 µM; in the test on HT29 colon it was 0.00124 µM; with SF-539 CNS, 0.0218 µM and 0.055 µM; in the test on OVCAR-8 ovarian it was 0.0126 µM and 0.0167 µM. The TGI is 0.131 µM in the test on SR leukemia; 0.000256 µM in the test with M14 melanoma; 0.0167 µM and 0.0252 µM in the test on NCI-H522 lung; 0.111 µM in the test with SK-OV-3 ovarian. Besides, the GI50 in the test with SR leukemia was less than 0.0001 µM; with ACHN renal, 33.4 µM; in the test with OVCAR-5 ovarian, 0.0109 µM.
Regarding `Cc1ccc(S(=O)(=O)NC(=O)NCCc2cnc[nH]2)cc1`, the TGI with MDA-MB-231 breast, with HCT-15 colon, in the test with SNB-75 CNS, in the test with UACC-62 melanoma, in the test with HT29 colon and in the test with SF-539 CNS was greater than 100 µM in each case. Also, the TGI in the test with OVCAR-8 ovarian, in the test with K-562 leukemia, in the test on SF-268 CNS, in the test with SR leukemia, in the test on ACHN renal and in the test on M14 melanoma was greater than 100 µM throughout. Further, the TGI in the test with NCI-H522 lung, in the test with SK-OV-3 ovarian and with OVCAR-5 ovarian was greater than 100 µM each time.
As for `N#Cc1cc(C#N)c(N)nc1N`, the TGI with MDA-MB-231 breast, in the test with BT-549 breast, in the test on HCT-15 colon, in the test with SNB-75 CNS, in the test on UACC-62 melanoma and in the test on HT29 colon was greater than 100 µM in each case. Also, the TGI in the test with SF-539 CNS, with OVCAR-8 ovarian, in the test with K-562 leukemia, in the test on SR leukemia, in the test on ACHN renal and in the test with M14 melanoma was greater than 100 µM in each case. The TGI in the test on NCI-H522 lung, in the test with SK-OV-3 ovarian and in the test with OVCAR-5 ovarian was greater than 100 µM in each case.
As to `CC(C)=CCC[C@]1(C)C=Cc2c(O)c3c(c(CC=C(C)C)c2O1)O[C@]12C(=C[C@@H]4CC1C(C)(C)O[C@@]2(C/C=C(/C)C(=O)O)C4=O)C3=O`, the TGI was determined as 4.23 µM in the test with MDA-MB-231 breast; 7.03 µM with BT-549 breast; 3.28 µM in the test on SNB-75 CNS; 4.57 µM with UACC-62 melanoma; 1.85 µM in the test with HT29 colon; 0.477 µM in the test on SF-539 CNS. In addition, the TGI with OVCAR-8 ovarian is 4.19 µM; with SF-268 CNS, 3.91 µM; in the test with SR leukemia, 0.939 µM; in the test on ACHN renal, 1.37 µM; in the test on M14 melanoma, 3.19 µM; in the test on NCI-H522 lung, 2.32 µM. Further, the TGI in the test with SK-OV-3 ovarian was 8.54 µM; with OVCAR-5 ovarian, 2.94 µM.
In the case of `CCc1n[nH]c(=O)n1/N=C/c1ccccc1O`, the TGI with MDA-MB-231 breast, in the test on BT-549 breast, in the test with HCT-15 colon, in the test with SNB-75 CNS, in the test with UACC-62 melanoma and in the test with SF-539 CNS was greater than 100 µM each time. Also, the TGI in the test with OVCAR-8 ovarian, in the test on K-562 leukemia, in the test with SF-268 CNS, with SR leukemia, with ACHN renal and in the test with M14 melanoma was greater than 100 µM in each case. Further, the TGI in the test with NCI-H522 lung, in the test with SK-OV-3 ovarian and in the test on OVCAR-5 ovarian was greater than 100 µM each time.
`CC(C)OP(=O)(OC(C)C)/C(Cl)=N/Nc1ccc([N+](=O)[O-])cc1`: the TGI in the test on HCT-15 colon, in the test with SNB-75 CNS, in the test on UACC-62 melanoma, in the test on SF-539 CNS, with OVCAR-8 ovarian and in the test with K-562 leukemia was greater than 100 µM throughout. For the same molecule, the TGI in the test on SF-268 CNS, in the test with SR leukemia, in the test on ACHN renal, in the test with M14 melanoma, in the test with NCI-H522 lung and in the test with OVCAR-5 ovarian was greater than 100 µM each time.
On to `S=c1[nH]nc(CNc2ccc(-c3n[nH]c(=S)n3-c3ccc(Cl)cc3)cc2)n1-c1ccc(Cl)cc1`, for which the TGI in the test with MDA-MB-231 breast is greater than 100 µM; in the test on BT-549 breast it was greater than 100 µM; with HCT-15 colon it was greater than 100 µM; in the test on SNB-75 CNS it was greater than 100 µM; in the test on UACC-62 melanoma, 78.8 µM; in the test with HT29 colon it was 66.7 µM. In addition, the TGI with K-562 leukemia is greater than 100 µM; with SF-268 CNS, greater than 100 µM; in the test with ACHN renal, greater than 100 µM; in the test on M14 melanoma, 68.1 µM; in the test on NCI-H522 lung, 48.5 µM; with SK-OV-3 ovarian, greater than 100 µM. The molecule also returned a TGI in the test on OVCAR-5 ovarian of 46.4 µM.
Regarding `CCN(CC)C(=O)Cc1c(C(=O)N(CC)CC)c(=O)nc2sccn12`, the TGI in the test on HCT-15 colon, in the test with SNB-75 CNS, in the test with UACC-62 melanoma, in the test on HT29 colon, with SF-539 CNS and in the test on OVCAR-8 ovarian was greater than 100 µM in each case. The TGI with K-562 leukemia, in the test on SF-268 CNS, in the test on SR leukemia, in the test on ACHN renal, in the test on M14 melanoma and in the test on NCI-H522 lung was greater than 100 µM in each case. Also, the TGI in the test with SK-OV-3 ovarian is greater than 100 µM.
With `CC(=O)O[C@H]1C(=O)[C@@]2(C)[C@H]([C@H](OC(=O)c3cccc([N+](=O)[O-])c3)[C@]3(O)C[C@H](OC(=O)[C@H](O)[C@@H](NC(=O)c4ccccc4)c4ccccc4)C(C)=C1C3(C)C)[C@]1(OC(C)=O)CO[C@@H]1C[C@@H]2O`, the TGI in the test on MDA-MB-231 breast is greater than 25 µM; in the test on BT-549 breast, greater than 25 µM; in the test on HCT-15 colon it was greater than 25 µM; in the test on SNB-75 CNS, 0.295 µM; in the test with UACC-62 melanoma, greater than 25 µM; with SF-539 CNS, 0.00254 µM. The TGI in the test with OVCAR-8 ovarian is greater than 25 µM; with SF-268 CNS it was greater than 25 µM; in the test with SR leukemia, 0.113 µM; with ACHN renal, greater than 25 µM; in the test with M14 melanoma, 8.52 µM; in the test with NCI-H522 lung it was 0.0161 µM. The TGI in the test with SK-OV-3 ovarian is greater than 25 µM; in the test on OVCAR-5 ovarian, 16.4 µM.

These data come from PubChem BioAssay (NCI).
